Results: patent US20200172529A1, “Chemical Compound, Pharmaceutical Composition Thereof, and Use and Application Thereof” (Beijing Hanmi Pharm. Co., Ltd., priority 2017, published 2020)

Tests used:
[1] = target: JAK1 kinase (Homo sapiens, UniProt P23458); test: Inhibition assay of JAK1 kinase activity (ADP-Glo Kinase Assay); format: biochemical
Text: Inhibition assay of JAK1 kinase activity: the method in ADP-Glo™ Kinase Assay (Promega, V9102) was used to determine the inhibitory activity of the test compounds against JAK1 kinase.

[2] = target: T1, TYK2 kinase (Homo sapiens, UniProt P29597); test: Inhibition assay of TYK2 kinase activity (ADP-Glo Kinase Assay); format: biochemical
T1 construct: purchased Life Technologies PR8440C
Protocol: Determination of inhibition of TYK2 kinase activity by the examples compounds disclosed herein
Inhibition assay of TYK2 kinase activity: the method of ADP-Glo™ Kinase Assay (Promega, V9102) was used to determine the inhibitory activity of the test compounds against TYK2 kinase.
TYK2 kinase (purchased from Life Technologies, article number: PR8440C) was diluted to the 2-fold final concentration (0.8 ng/mL) using reaction buffer (40 mM Tris-HCl, pH 7.5; 20 mM MgCl2; 0.1 mg/mL BSA; 1 mM DTT), and added to a 384-well plate at 5 μL/well. The test drugs were subjected to a 10-fold gradient dilution, from 10 μM, to obtain 6 concentrations, and added to experimental wells of the 384-well plate at 2.5 μL/well. 5 μL of water and 2.5 μL of buffer were added to negative control wells. 5 μL of TYK2 and 2.5 μL of water were added to positive control wells. After incubating for 10 minutes at room temperature, the substrate ATP and polyE4Y1 (Sigma, P0275) were added at 2.5 μL/well, mixed well, and then reacted at room temperature for 60 minutes. After the reaction was completed, the kinase activity was detected according to the instruction of the kit. First, the ADP-Glo reaction reagent was added at 10 μL/well, mixed well, and reacted at room temperature for 40 minutes. The kinase detection reagent was then added at 20 μL/well, mixed well, and then reacted at room temperature for 30 minutes. The detection was then performed and the IC50s of test drugs were calculated.

JAK1 kinase, sequence (P23458 whole entry): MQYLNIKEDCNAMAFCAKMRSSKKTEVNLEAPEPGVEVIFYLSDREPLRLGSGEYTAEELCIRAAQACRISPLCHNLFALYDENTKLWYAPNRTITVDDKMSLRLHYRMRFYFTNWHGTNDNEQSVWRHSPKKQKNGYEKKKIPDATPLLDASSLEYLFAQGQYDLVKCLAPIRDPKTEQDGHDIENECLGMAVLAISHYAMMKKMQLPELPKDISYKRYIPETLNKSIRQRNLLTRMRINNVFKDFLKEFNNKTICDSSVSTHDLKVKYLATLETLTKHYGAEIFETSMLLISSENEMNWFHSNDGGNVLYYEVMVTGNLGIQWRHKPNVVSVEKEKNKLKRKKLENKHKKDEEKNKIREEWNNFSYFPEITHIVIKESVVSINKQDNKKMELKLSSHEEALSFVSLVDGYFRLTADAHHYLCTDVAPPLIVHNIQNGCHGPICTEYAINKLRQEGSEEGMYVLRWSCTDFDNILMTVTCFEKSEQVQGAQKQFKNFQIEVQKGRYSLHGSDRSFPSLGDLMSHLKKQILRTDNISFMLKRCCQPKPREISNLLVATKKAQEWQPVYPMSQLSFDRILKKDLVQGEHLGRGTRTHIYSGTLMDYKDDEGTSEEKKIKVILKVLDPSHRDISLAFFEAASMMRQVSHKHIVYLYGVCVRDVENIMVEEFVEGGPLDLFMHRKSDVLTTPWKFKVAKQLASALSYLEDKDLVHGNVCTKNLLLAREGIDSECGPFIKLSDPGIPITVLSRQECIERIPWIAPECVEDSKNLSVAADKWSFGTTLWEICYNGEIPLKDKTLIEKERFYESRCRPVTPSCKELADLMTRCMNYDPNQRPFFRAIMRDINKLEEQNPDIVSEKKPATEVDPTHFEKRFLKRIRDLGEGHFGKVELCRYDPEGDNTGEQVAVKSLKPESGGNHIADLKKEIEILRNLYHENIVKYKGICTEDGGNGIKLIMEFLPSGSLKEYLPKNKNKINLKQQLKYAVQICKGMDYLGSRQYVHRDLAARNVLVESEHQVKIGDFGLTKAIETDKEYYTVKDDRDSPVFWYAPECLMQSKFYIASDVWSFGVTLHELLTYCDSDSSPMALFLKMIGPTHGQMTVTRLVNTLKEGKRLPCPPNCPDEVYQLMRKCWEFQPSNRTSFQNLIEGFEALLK
T1 sequence (P29597 whole entry): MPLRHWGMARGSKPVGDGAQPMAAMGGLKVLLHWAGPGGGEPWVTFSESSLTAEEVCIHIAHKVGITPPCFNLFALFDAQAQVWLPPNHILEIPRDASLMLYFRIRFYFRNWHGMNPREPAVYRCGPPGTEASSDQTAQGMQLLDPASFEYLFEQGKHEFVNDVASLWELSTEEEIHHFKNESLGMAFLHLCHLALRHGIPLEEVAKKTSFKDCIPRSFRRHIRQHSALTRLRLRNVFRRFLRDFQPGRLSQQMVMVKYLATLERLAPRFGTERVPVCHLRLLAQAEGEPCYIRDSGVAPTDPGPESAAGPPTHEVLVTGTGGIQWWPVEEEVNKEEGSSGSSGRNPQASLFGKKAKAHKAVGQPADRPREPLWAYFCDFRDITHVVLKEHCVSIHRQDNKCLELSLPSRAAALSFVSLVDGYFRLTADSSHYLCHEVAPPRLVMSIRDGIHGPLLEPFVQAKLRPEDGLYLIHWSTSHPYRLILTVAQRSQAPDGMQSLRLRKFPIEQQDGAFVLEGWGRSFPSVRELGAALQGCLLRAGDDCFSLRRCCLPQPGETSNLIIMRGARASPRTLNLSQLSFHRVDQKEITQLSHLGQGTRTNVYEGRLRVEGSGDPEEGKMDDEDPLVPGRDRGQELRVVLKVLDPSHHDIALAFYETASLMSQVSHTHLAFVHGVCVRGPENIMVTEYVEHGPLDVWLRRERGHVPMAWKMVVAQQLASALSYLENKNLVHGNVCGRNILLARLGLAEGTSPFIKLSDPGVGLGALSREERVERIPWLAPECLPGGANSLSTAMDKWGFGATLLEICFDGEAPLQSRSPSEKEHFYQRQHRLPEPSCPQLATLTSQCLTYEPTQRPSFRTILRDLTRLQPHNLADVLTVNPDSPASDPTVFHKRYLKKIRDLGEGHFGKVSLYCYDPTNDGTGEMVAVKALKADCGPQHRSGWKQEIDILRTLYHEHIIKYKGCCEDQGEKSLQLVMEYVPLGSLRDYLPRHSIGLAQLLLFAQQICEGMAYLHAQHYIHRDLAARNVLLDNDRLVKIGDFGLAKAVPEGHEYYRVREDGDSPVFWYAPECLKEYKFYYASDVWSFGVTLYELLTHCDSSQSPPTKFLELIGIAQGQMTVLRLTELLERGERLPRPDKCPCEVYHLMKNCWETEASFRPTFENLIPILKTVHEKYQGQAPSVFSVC

IC50 [1] | IC50 [2] | Structure (SMILES)
– | 10 to 100 nM | COc1ccc(CNc2nc(Nc3ccc4c(c3)NCC(O)CO4)ncc2C(N)=O)cc1 (stereo not drawn) [Example 11, 4-((4-methoxybenzyl)amino)-2-((3-hydroxy-2,3,4,5-tetrahydro-benzo[b][1,4]oxazepin-7-yl)amino)pyrimidin-5-carboxamide]
– | 10 to 100 nM | NC(=O)c1cnc(Nc2ccc3c(c2)NCC(O)CO3)nc1NC1CCCc2ccccc21 (stereo not drawn) [Example 22, 4-((1,2,3,4-tetrahydronaphthalen-1-yl)amino)-2-((3-hydroxy-2,3,4,5-tetrahydro-benzo[b][1,4]oxazepin-7-yl)amino)pyrimidin-5-carboxamide]
< 10 nM | < 10 nM | NC(=O)c1cnc(Nc2ccc3c(c2)NC[C@H](O)CO3)nc1Nc1cccc2[nH]ccc12 [Example 29, 4-((1H-indol-4-yl)amino)-2-(((S)-2,3,4,5-tetrahydro-3-hydroxybenzo[b][1,4]oxazepin-7-yl)amino)pyrimidin-5-carboxamide]
< 10 nM | < 10 nM | NC(=O)c1cnc(Nc2ccc3c(c2)NCC(O)CO3)nc1NC1CCCC1 (stereo not drawn) [Example 3, 4-(cyclopentylamino)-2-((3-hydroxy-2,3,4,5-tetrahydro-benzo[b][1,4]oxazepin-7-yl)amino)pyrimidin-5-carboxamide]
10 to 100 nM | < 10 nM | Cn1ccc2c(Nc3nc(Nc4ccc5c(c4)NCC(O)CO5)ncc3C(N)=O)cccc21 (stereo not drawn) [Example 20, 4-((1-methyl-1H-indol-4-yl)amino)-2-((3-hydroxy-2,3,4,5-tetrahydro-benzo[b][1,4]oxazepin-7-yl)amino)pyrimidin-5-carboxamide]
10 to 100 nM | < 10 nM | CCNc1nc(Nc2ccc3c(c2)NC[C@H](O)CO3)ncc1C(N)=O [Example 40, 4-(ethylamino)-2-(((S)-2,3,4,5-tetrahydro-3-hydroxybenzo[b][1,4]oxazepin-7-yl)amino)pyrimidin-5-carboxamide]
10 to 100 nM | < 10 nM | N#CCNc1nc(Nc2ccc3c(c2)NCC(O)CO3)ncc1C(N)=O (stereo not drawn) [Example 8, 4-(cyanomethylamino)-2-((3-hydroxy-2,3,4,5-tetrahydro-benzo[b][1,4]oxazepin-7-yl)amino)pyrimidin-5-carboxamide]
– | 10 to 100 nM | NC(=O)c1cnc(Nc2ccc3c(c2)NCC(O)CO3)nc1Nc1ccccc1 (stereo not drawn) [Example 16, 4-(phenylamino)-2-((3-hydroxy-2,3,4,5-tetrahydro-benzo[b][1,4]oxazepin-7-yl)amino)pyrimidin-5-carboxamide]
– | 10 to 100 nM | NC(=O)c1cnc(Nc2ccc3c(c2)NCC(O)CO3)nc1Nc1cccc(F)c1 (stereo not drawn) [Example 18, 4-((3-fluorophenyl)amino)-2-((3-hydroxy-2,3,4,5-tetrahydro-benzo[b][1,4]oxazepin-7-yl)amino)pyrimidin-5-carboxamide]
– | 10 to 100 nM | CC(Nc1nc(Nc2ccc3c(c2)NCC(O)CO3)ncc1C(N)=O)c1ccccc1 (stereo not drawn) [Example 12, 4-((1-phenylethyl)amino)-2-((3-hydroxy-2,3,4,5-tetrahydro-benzo[b][1,4]oxazepin-7-yl)amino)pyrimidin-5-carboxamide]
– | < 10 nM | CC(C)(CO)Nc1nc(Nc2ccc3c(c2)NC[C@H](O)CO3)ncc1C(N)=O [Example 28, 4-((1-hydroxy-2-methylpropan-2-yl)amino)-2-(((S)-2,3,4,5-tetrahydro-3-hydroxybenzo[b][1,4]oxazepin-7-yl)amino)pyrimidin-5-carboxamide]
– | 10 to 100 nM | NC(=O)c1cnc(Nc2ccc3c(c2)NCC(O)CO3)nc1NCc1ccncc1 (stereo not drawn) [Example 15, 4-((pyridin-4-ylmethyl)amino)-2-((3-hydroxy-2,3,4,5-tetrahydro-benzo[b][1,4]oxazepin-7-yl)amino)pyrimidin-5-carboxamide]
– | < 10 nM | NC(=O)c1cnc(Nc2ccc3c(c2)NCC(O)CO3)nc1NCc1ccccn1 (stereo not drawn) [Example 13, 4-((pyridin-2-ylmethyl)amino)-2-((3-hydroxy-2,3,4,5-tetrahydro-benzo[b][1,4]oxazepin-7-yl)amino)pyrimidin-5-carboxamide]
– | < 10 nM | CCO[C@@H]1CNc2cc(Nc3ncc(C(N)=O)c(NC4CC4)n3)ccc2OC1 [Example 83, 4-(cyclopropylamino)-2-(((R)-2,3,4,5-tetrahydro-3-ethoxybenzo[b][1,4]oxazepin-7-yl)amino)pyrimidin-5-carboxamide]

The remaining lines, values behind:

Structure (SMILES) | IC50 [1] | IC50 [2]
NC(=O)c1cnc(Nc2ccc3c(c2)NC[C@H](O)CO3)nc1NC1CCC(O)C1 (stereo partly drawn) [Example 37, 4-((3-hydroxycyclopentyl)amino)-2-(((S)-2,3,4,5-tetrahydro-3-hydroxybenzo[b][1,4]oxazepin-7-yl)amino)pyrimidin-5-carboxamide] | < 10 nM | < 10 nM
CC(C)Nc1nc(Nc2ccc3c(c2)NC[C@H](O)CO3)ncc1C(N)=O [Example 30, 4-(isopropylamino)-2-(((S)-2,3,4,5-tetrahydro-3-hydroxybenzo[b][1,4]oxazepin-7-yl)amino)pyrimidin-5-carboxamide] | 10 to 100 nM | < 10 nM
NC(=O)c1cnc(Nc2ccc3c(c2)NCC(O)CO3)nc1NC1CCCCC1 (stereo not drawn) [Example 4, 4-(cyclohexylamino)-2-((3-hydroxy-2,3,4,5-tetrahydro-benzo[b][1,4]oxazepin-7-yl)amino)pyrimidin-5-carboxamide] | 10 to 100 nM | < 10 nM
Cc1ccc(Nc2nc(Nc3ccc4c(c3)NCC(O)CO4)ncc2C(N)=O)nc1 (stereo not drawn) [Example 19, 4-((5-methylpyridin-2-yl)amino)-2-((3-hydroxy-2,3,4,5-tetrahydro-benzo[b][1,4]oxazepin-7-yl)amino)pyrimidin-5-carboxamide] | – | 10 to 100 nM
NC(=O)c1cnc(Nc2ccc3c(c2)NC[C@H](O)CO3)nc1NC1CCC(O)CC1 (stereo partly drawn) [Example 39, 4-((4-hydroxycyclohexyl)amino)-2(((S)-2,3,4,5-tetrahydro-3-hydroxybenzo[b][1,4]oxazepin-7-yl)amino)pyrimidin-5-carboxamide] | 10 to 100 nM | < 10 nM
NC(=O)c1cnc(Nc2ccc3c(c2)NC[C@H](O)CO3)nc1NC1CCCCC1 [Example 33, 4-(cyclohexylamino)-2-(((S)-2,3,4,5-tetrahydro-3-hydroxybenzo[b][1,4]oxazepin-7-yl)amino)pyrimidin-5-carboxamide] | 10 to 100 nM | < 10 nM
NC(=O)c1cnc(Nc2ccc3c(c2)NCC(O)CO3)nc1Nc1cccc2sccc12 (stereo not drawn) [Example 21, 4-(benzo[b]thiophen-4-ylamino)-2-((3-hydroxy-2,3,4,5-tetrahydro-benzo[b][1,4]oxazepin-7-yl)amino)pyrimidin-5-carboxamide] | – | < 10 nM
COCCCNc1nc(Nc2ccc3c(c2)NC[C@H](O)CO3)ncc1C(N)=O [Example 52, 4-((3-methoxypropyl)amino)-2-(((S)-2,3,4,5-tetrahydro-3-hydroxybenzo[b][1,4]oxazepin-7-yl)amino)pyrimidin-5-carboxamide] | 10 to 100 nM | < 10 nM
NC(=O)c1cnc(Nc2ccc3c(c2)NCC(O)CO3)nc1NCc1ccc(F)cc1 (stereo not drawn) [Example 10, 4-((4-fluorobenzyl)amino)-2-((3-hydroxy-2,3,4,5-tetrahydro-benzo[b][1,4]oxazepin-7-yl)amino)pyrimidin-5-carboxamide] | – | 10 to 100 nM
CCCCCO[C@H]1CNc2cc(Nc3ncc(C(N)=O)c(NC4CC4)n3)ccc2OC1 [Example 88, 4-(cyclopropylamino)-2-(((S)-2,3,4,5-tetrahydro-3-pentoxybenzo[b][1,4]oxazepin-7-yl)amino)pyrimidin-5-carboxamide] | – | 10 to 100 nM
CC(Nc1nc(Nc2ccc3c(c2)NC[C@H](O)CO3)ncc1C(N)=O)C(F)(F)F (stereo partly drawn) [Example 32, 4-(1,1,1-trifluoropropan-2-ylamino)-2-(((S)-2,3,4,5-tetrahydro-3-hydroxybenzo[b][1,4]oxazepin-7-yl)amino)pyrimidin-5-carboxamide] | 10 to 100 nM | 10 to 100 nM
CCS(=O)(=O)NCCNc1nc(Nc2ccc3c(c2)NC[C@H](O)CO3)ncc1C(N)=O [Example 71, 4-((2-(ethylsulfonamido)ethyl)amino)-2-(((S)-2,3,4,5-tetrahydro-3-hydroxybenzo[b][1,4]oxazepin-7-yl)amino)pyrimidin-5-carboxamide] | – | < 10 nM
NC(=O)c1cnc(Nc2ccc3c(c2)NC[C@H](O)CO3)nc1NC12CC3CC(CC(C3)C1)C2 [Example 45, 4-(adamantan-1-ylamino)-2-(((S)-2,3,4,5-tetrahydro-3-hydroxybenzo[bb][1,4]oxazepin-7-yl)amino)pyrimidin-5-carboxamide] | 10 to 100 nM | 10 to 100 nM
CCCCO[C@@H]1CNc2cc(Nc3ncc(C(N)=O)c(NC4CC4)n3)ccc2OC1 [Example 85, 4-(cyclopropylamino)-2-(((R)-2,3,4,5-tetrahydro-3-butoxybenzo[b][1,4]oxazepin-7-yl)amino)pyrimidin-5-carboxamide] | – | < 10 nM
CC(O)CNc1nc(Nc2ccc3c(c2)NCC(O)CO3)ncc1C(N)=O (stereo not drawn) [Example 23, 4-((2-hydroxypropyl)amino)-2-((3-hydroxy-2,3,4,5-tetrahydro-benzo[b][1,4]oxazepin-7-yl)amino)pyrimidin-5-carboxamide] | – | < 10 nM
